Patent US10300052B2, “Methods for increasing CFTR activity” (THE UAB RESEARCH FOUNDATION, priority 2012, dated 2019)

Tests used:
[1] = target: G551D-CFTR (Homo sapiens, UniProt P13569, G551D); design: host or cells: CF patients carrying G551D-CFTR (endogenous protein); conditions: CF patients with G551D-CFTR; reported; cited from earlier work
[2] = system: porcine trachea CFTR+/+; test: μOCT imaging of airway epithelial function in porcine trachea, CFTR+/+ animals; conditions: ivacaftor 10 μM in bath, 37° C. (FIG. 7H)
Source text: FIGS. 7A-7H show the effects of CFTR activators on airway epithelial function in intact porcine trachea by μOCT. FIGS. 7A-7B show representative μOCT images for a CFTR−/− (FIG. 7A) and CFTR+/+ (FIG. 7B) animal. FIGS. 7C-7F, respectively, show ASL depth (FIG. 7C), PCL depth (FIG. 7D), CBF (FIG. 7E) and MCT (FIG. 7F) measurements derived from μOCT images from CFTR−/− and CFTR+/+ animals. FIGS. 7G and 7H show the response of epithelial functional parameters, namely ASL depth and MCT in CFTR−/− (FIG. 7G) and CFTR+/+(FIG. 7H) animals in response to sequential pharmacologic intervention by ivacaftor (10 μM), forskolin (100 nM) and acetylcholine (100 μM).
To further investigate the role of CFTR activators in modulating airway epithelial cell function, CFTR activators were studied in combination with porcine trachea. In this example, porcine trachea from animals having a mutated CFTR (CFTR (−/−) and from animals having a WT-CFTR (CFTR+/+) were evaluated for ASL depth, PCL depth, CBF and MCT. The results are shown in FIGS. 7A-7H.
FIGS. 7G and 7H show the response of epithelial functional parameters, namely ASL depth, CBF and MCT in CFTR−/− and CFTR+/+ animals in response to sequential pharmacologic intervention by ivacaftor (10 μM), forskolin (100 nM) and acetylcholine (100 μM); in this experiment, acetylcholine served as a positive control to induce glandular extrusion in CF tissue). In these experiments, agonists were added to the bath solution and all experiments were conducted under physiological conditions (37° C. and 100% humidity). […] In contrast to FIG. 7G, ASL depth, CBF and MCT were all increased in response to ivacaftor treatment in CFTR+/+ animals, consistent with the results described above for human tissue.
Normal piglet tracheas were obtained from Exemplar Genetics (Sioux Center, Iowa). Tissue were dissected from one-day-old piglets and shipped on wet ice in DMEM. A modified protocol based on airway tissue handling and preparation methods developed by Ballard et al. (Am J Physiol Lung Cell Mol Physiol 298: L270-276, 2010) was employed. […]

Chain of G551D-CFTR (P13569 whole entry G551D): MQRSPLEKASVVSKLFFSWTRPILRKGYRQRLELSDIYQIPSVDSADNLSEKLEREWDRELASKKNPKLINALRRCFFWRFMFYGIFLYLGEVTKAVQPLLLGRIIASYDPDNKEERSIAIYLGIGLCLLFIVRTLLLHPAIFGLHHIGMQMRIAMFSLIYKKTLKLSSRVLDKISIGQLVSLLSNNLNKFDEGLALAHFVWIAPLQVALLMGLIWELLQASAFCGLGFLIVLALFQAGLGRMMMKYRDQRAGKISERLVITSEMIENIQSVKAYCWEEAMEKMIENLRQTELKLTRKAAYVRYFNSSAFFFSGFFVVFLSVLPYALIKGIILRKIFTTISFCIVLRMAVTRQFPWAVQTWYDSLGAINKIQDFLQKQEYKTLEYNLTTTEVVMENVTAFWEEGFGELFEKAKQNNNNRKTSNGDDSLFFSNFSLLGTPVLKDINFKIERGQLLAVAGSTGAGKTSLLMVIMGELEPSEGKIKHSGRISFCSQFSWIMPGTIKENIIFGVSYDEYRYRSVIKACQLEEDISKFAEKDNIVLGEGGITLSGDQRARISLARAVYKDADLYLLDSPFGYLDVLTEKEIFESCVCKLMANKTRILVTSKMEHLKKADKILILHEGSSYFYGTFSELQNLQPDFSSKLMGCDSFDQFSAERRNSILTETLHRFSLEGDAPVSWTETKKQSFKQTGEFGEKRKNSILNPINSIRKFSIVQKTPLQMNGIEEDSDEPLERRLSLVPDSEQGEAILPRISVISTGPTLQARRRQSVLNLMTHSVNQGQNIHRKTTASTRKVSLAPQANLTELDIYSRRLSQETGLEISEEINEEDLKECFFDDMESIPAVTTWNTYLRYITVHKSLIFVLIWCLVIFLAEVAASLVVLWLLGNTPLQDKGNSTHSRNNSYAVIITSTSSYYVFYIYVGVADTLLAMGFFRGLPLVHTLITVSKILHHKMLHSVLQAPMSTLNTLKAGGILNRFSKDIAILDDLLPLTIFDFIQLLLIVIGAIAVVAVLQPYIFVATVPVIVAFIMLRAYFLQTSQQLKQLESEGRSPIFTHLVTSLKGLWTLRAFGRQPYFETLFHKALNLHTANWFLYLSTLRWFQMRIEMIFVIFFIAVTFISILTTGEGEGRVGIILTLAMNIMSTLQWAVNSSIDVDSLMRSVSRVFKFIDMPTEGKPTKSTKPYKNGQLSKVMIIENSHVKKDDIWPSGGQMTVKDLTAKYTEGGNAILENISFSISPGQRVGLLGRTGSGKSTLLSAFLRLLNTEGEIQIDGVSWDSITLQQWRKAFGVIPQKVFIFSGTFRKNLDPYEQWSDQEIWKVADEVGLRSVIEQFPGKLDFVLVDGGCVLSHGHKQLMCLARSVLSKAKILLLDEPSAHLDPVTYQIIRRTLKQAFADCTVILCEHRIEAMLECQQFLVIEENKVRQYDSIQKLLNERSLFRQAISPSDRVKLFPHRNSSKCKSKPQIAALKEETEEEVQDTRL

## CC(C)(C)c1cc(C(C)(C)C)c(NC(=O)c2c[nH]c3ccccc3c2=O)cc1O [ivacaftor]
[1]
  measures of CFTR activity: improved
  pulmonary function: enhanced
[2]
  ASL depth response: increased
  CBF response: increased
  MCT response: increased
